Values joined by “and” are separate entries in the source; they are usually repeats but may differ in a detail not shown here. Identical values can stand only once.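 96-well plates; 48 h exposure; 5 concentrations. Endpoints by linear interpolation between flanking doses. Not reached: highest tested concentration assigned. At the GI50, growth is halved. At the TGI there is no net growth.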
Legend:
Assay in all cases: growth of human tumour cells (NCI), 48 h
SF-295 CNS = tested on: SF-295 CNS
MDA-MB-231 breast = tested on: MDA-MB-231 breast
PC-3 prostate = tested on: PC-3 prostate
NCI-H460 lung = tested on: NCI-H460 lung
SK-MEL-2 melanoma = tested on: SK-MEL-2 melanoma
DU-145 prostate = tested on: DU-145 prostate
TK-10 renal = tested on: TK-10 renal
786-0 renal = tested on: 786-0 renal

## COc1ccc(Nc2cnc3cc(N)cc(N)c3n2)cc1
SF-295 CNS
  GI50: 22.3 µM
  TGI: 48.7 µM
MDA-MB-231 breast
  GI50: 10.5 µM
  TGI: 26.2 µM
PC-3 prostate
  GI50: 14.7 µM
  TGI: 27.9 µM
NCI-H460 lung
  GI50: 21.9 µM
  TGI: 53.5 µM
SK-MEL-2 melanoma
  GI50: 14.4 µM
  TGI: 32 µM
DU-145 prostate
  GI50: 30.4 µM
  TGI: > 100 µM
TK-10 renal
  GI50: 23.7 µM
  TGI: 76.2 µM
786-0 renal
  GI50: 18.2 µM
  TGI: 42.9 µM

## CC(=O)Oc1c(C(=O)[O-])cc(C(C)C)cc1C(C)C.CC(=O)Oc1c(C(=O)[O-])cc(C(C)C)cc1C(C)C.CC(=O)Oc1c(C(=O)[O-])cc(C(C)C)cc1C(C)C.CC(=O)Oc1c(C(=O)[O-])cc(C(C)C)cc1C(C)C.[Cu+2].[Cu+2]
SF-295 CNS
  GI50: 24.4 µM
  TGI: 70.5 µM
MDA-MB-231 breast
  GI50: 33.9 µM
  TGI: > 100 µM
PC-3 prostate
  GI50: 57.3 µM
  TGI: > 100 µM
NCI-H460 lung
  GI50: 34.8 µM
  TGI: > 100 µM
SK-MEL-2 melanoma
  GI50: 40.8 µM
  TGI: > 100 µM
DU-145 prostate
  GI50: 34.2 µM
  TGI: > 100 µM
TK-10 renal
  GI50: 33.7 µM
  TGI: > 100 µM
786-0 renal
  GI50: 63.6 µM
  TGI: > 100 µM

## OCCCCC#Cc1ccccc1C#Cc1cccc(C(F)(F)F)c1
SF-295 CNS
  GI50: 16.5 µM
  TGI: 30.9 µM
MDA-MB-231 breast
  GI50: 18.3 µM
  TGI: 33.4 µM
PC-3 prostate
  GI50: 18.2 µM
  TGI: 33.7 µM
NCI-H460 lung
  GI50: 18.4 µM
  TGI: 40.6 µM
SK-MEL-2 melanoma
  GI50: 19.7 µM
  TGI: 42.1 µM
DU-145 prostate
  GI50: 15.3 µM
  TGI: 29.9 µM
TK-10 renal
  GI50: 16.9 µM
  TGI: 32.2 µM
786-0 renal
  GI50: 11.1 µM
  TGI: 34 µM

## Cc1cnc(C(=O)NNc2nc3sc4c(c3c(=O)[nH]2)C(C)CCC4)cn1 (stereo not drawn)
SF-295 CNS
  GI50: 1.08 µM
  TGI: 14.6 µM
MDA-MB-231 breast
  GI50: 1.85 µM
  TGI: 18.1 µM
PC-3 prostate
  GI50: 2.08 µM
  TGI: 66.6 µM
NCI-H460 lung
  GI50: 0.545 µM
  TGI: 12.9 µM
SK-MEL-2 melanoma
  GI50: 6.64 µM
  TGI: 37.4 µM
DU-145 prostate
  GI50: 1.43 µM
  TGI: 80.7 µM
TK-10 renal
  GI50: 1.99 µM
  TGI: 39.7 µM
786-0 renal
  GI50: 1.56 µM
  TGI: 13.5 µM

## COc1ccc(C(O)c2cc3c(N)c(C(=O)Nc4cccc5ccccc45)sc3nc2C)cc1 (stereo not drawn)
SF-295 CNS
  GI50: 3.4 µM
  TGI: > 100 µM
MDA-MB-231 breast
  GI50: 0.393 µM
PC-3 prostate
  GI50: 0.47 µM
  TGI: > 100 µM
NCI-H460 lung
  GI50: 0.332 µM
  TGI: 5.93 µM
SK-MEL-2 melanoma
  GI50: 0.811 µM
  TGI: > 43.2 µM
DU-145 prostate
  GI50: 0.348 µM
  TGI: 3.12 µM
TK-10 renal
  TGI: > 100 µM
786-0 renal
  GI50: 0.499 µM

## CCOC(=O)/C(=C\c1cccc(C)c1)C(C)=O
SF-295 CNS
  TGI: 55.8 µM
MDA-MB-231 breast
  TGI: 28.9 µM
PC-3 prostate
  TGI: 28.3 µM
NCI-H460 lung
  TGI: 51.6 µM
SK-MEL-2 melanoma
  TGI: 26.1 µM
DU-145 prostate
  TGI: 38.7 µM
TK-10 renal
  TGI: 44.3 µM
786-0 renal
  TGI: 26.4 µM

## COc1ccc(-c2cc(/C=C/C(=O)c3ccc(N)cc3)[nH]n2)cc1OC
SF-295 CNS
  GI50: 3.58 µM
  TGI: 15.2 µM
MDA-MB-231 breast
  GI50: 4.42 µM
  TGI: 17.2 µM
PC-3 prostate
  GI50: 3.71 µM
  TGI: 19.8 µM
NCI-H460 lung
  GI50: 2.03 µM
  TGI: 4.53 µM
SK-MEL-2 melanoma
  GI50: 8.44 µM
  TGI: 22.2 µM
DU-145 prostate
  GI50: 3.74 µM
  TGI: 13.5 µM
TK-10 renal
  GI50: 10.9 µM
  TGI: 23 µM
786-0 renal
  GI50: 1.88 µM
  TGI: 4.39 µM

## COCCN(CCOC)c1nc(-c2ccccc2)nc2ccccc12
SF-295 CNS
  GI50: 30.9 µM
  TGI: > 100 µM
MDA-MB-231 breast
  GI50: 59.4 µM
  TGI: > 100 µM
PC-3 prostate
  GI50: 15.1 µM
  TGI: 43.7 µM
NCI-H460 lung
  GI50: 20.8 µM
  TGI: 79.2 µM
SK-MEL-2 melanoma
  GI50: 19.2 µM
  TGI: 44.6 µM
DU-145 prostate
  GI50: 36.9 µM
  TGI: > 100 µM
TK-10 renal
  GI50: 30.7 µM
  TGI: 78.4 µM
786-0 renal
  GI50: 25.6 µM
  TGI: > 100 µM

## CCc1ccc(Nc2cc(C)c3ccc(O)cc3n2)cc1
SF-295 CNS
  GI50: 5.06 µM
  TGI: 20.3 µM
MDA-MB-231 breast
  GI50: 3.12 µM
  TGI: 13.7 µM
PC-3 prostate
  GI50: 4.79 µM
  TGI: 18.5 µM
NCI-H460 lung
  GI50: 4.92 µM
  TGI: 22 µM
SK-MEL-2 melanoma
  GI50: 9.97 µM
  TGI: 23.6 µM
DU-145 prostate
  GI50: 12.1 µM
  TGI: 28.1 µM
TK-10 renal
  GI50: 14.1 µM
  TGI: 27.8 µM
786-0 renal
  GI50: 6.07 µM
  TGI: 19.9 µM

## COCCN(Cc1ccc(F)cc1)c1ccc(CO)c(Cl)c1
SF-295 CNS
  GI50: 3.83 µM
  TGI: > 100 µM
MDA-MB-231 breast
  GI50: 24.1 µM
  TGI: > 85.3 µM
PC-3 prostate
  GI50: 29.4 µM
  TGI: > 100 µM
NCI-H460 lung
  GI50: 1.9 µM
  TGI: > 43.6 µM
SK-MEL-2 melanoma
  GI50: 20.6 µM
  TGI: 59.5 µM
DU-145 prostate
  GI50: 70.4 µM
  TGI: > 100 µM
TK-10 renal
  GI50: 0.271 µM
  TGI: 1.66 µM
786-0 renal
  GI50: 23.1 µM
  TGI: > 82.3 µM

## C=CCN(CC=C)C(=O)c1cc(C)nc2c1c(=O)n(-c1ccccc1)c(=O)n2CCCN1CCN(c2ccccc2OC)CC1
SF-295 CNS
  GI50: > 50 µM
  TGI: > 50 µM
MDA-MB-231 breast
  GI50: > 50 µM
  TGI: > 50 µM
PC-3 prostate
  GI50: > 50 µM
  TGI: > 50 µM
NCI-H460 lung
  GI50: > 50 µM
  TGI: > 50 µM
SK-MEL-2 melanoma
  GI50: > 50 µM
  TGI: > 50 µM
DU-145 prostate
  GI50: > 50 µM
  TGI: > 50 µM
TK-10 renal
  GI50: > 50 µM
  TGI: > 50 µM
786-0 renal
  GI50: > 50 µM
  TGI: > 50 µM

## COc1ccc(/C=C2\CCC/C(=C\c3ccc(OC)c(OC)c3)C2=O)cc1OC
SF-295 CNS
  GI50: 1.4 µM
  TGI: 21.3 µM
MDA-MB-231 breast
  GI50: 10.5 µM
  TGI: > 32.5 µM
PC-3 prostate
  GI50: 2.83 µM
  TGI: > 32.5 µM
NCI-H460 lung
  GI50: 1.61 µM
  TGI: > 32.5 µM
SK-MEL-2 melanoma
  GI50: 5.02 µM
  TGI: 15.2 µM
DU-145 prostate
  GI50: 1.28 µM
  TGI: 9.89 µM
TK-10 renal
  GI50: 1.4 µM
  TGI: 7.33 µM
786-0 renal
  GI50: 5.59 µM
  TGI: > 32.5 µM

## COC12C(COC(=O)NCCO)C3=C(C(=O)C(C)=C(N)C3=O)N1CC1NC12 (stereo not drawn)
SF-295 CNS
  GI50: 24.3 µM
  TGI: > 264 µM
MDA-MB-231 breast
  TGI: > 264 µM
PC-3 prostate
  TGI: 248 µM
NCI-H460 lung
  TGI: 30.7 µM and 49.4 µM
SK-MEL-2 melanoma
  TGI: 79.9 µM and 75.5 µM
DU-145 prostate
  TGI: 236 µM
TK-10 renal
  GI50: 66.8 µM
  TGI: > 264 µM
786-0 renal
  GI50: 41 µM
  TGI: > 264 µM

## Cc1cc(Br)c(NC(=O)c2c(-c3c(Cl)cccc3Cl)noc2C)c(Br)c1
SF-295 CNS
  GI50: 2.15 µM
  TGI: > 100 µM
MDA-MB-231 breast
  GI50: > 100 µM
  TGI: > 100 µM
PC-3 prostate
  GI50: > 100 µM
  TGI: > 100 µM
NCI-H460 lung
  GI50: > 100 µM
  TGI: > 100 µM
SK-MEL-2 melanoma
  GI50: > 100 µM
  TGI: > 100 µM
DU-145 prostate
  GI50: 90.8 µM
  TGI: > 100 µM
TK-10 renal
  GI50: > 100 µM
  TGI: > 100 µM
786-0 renal
  GI50: > 100 µM
  TGI: > 100 µM

— PubChem BioAssay (NCI)
